Data on 9 molecules can be found in ChEMBL document CHEMBL3797099, “Re-exploration of the mGlu₁ PAM Ro 07-11401 scaffold: Discovery of analogs with improved CNS penetration despite steep SAR” (Bioorg Med Chem Lett, 2016).

The target of series [1] is T1, Metabotropic glutamate receptor 1 (Homo sapiens, UniProt Q13255). The series is described as follows: Positive allosteric modulation of human mGlu1 receptor assessed as increase in glutamate-induced calcium mobilization relative to glutamate. Format: functional.
Target sequence in this assay (Q13255 19-1194 limits assumed): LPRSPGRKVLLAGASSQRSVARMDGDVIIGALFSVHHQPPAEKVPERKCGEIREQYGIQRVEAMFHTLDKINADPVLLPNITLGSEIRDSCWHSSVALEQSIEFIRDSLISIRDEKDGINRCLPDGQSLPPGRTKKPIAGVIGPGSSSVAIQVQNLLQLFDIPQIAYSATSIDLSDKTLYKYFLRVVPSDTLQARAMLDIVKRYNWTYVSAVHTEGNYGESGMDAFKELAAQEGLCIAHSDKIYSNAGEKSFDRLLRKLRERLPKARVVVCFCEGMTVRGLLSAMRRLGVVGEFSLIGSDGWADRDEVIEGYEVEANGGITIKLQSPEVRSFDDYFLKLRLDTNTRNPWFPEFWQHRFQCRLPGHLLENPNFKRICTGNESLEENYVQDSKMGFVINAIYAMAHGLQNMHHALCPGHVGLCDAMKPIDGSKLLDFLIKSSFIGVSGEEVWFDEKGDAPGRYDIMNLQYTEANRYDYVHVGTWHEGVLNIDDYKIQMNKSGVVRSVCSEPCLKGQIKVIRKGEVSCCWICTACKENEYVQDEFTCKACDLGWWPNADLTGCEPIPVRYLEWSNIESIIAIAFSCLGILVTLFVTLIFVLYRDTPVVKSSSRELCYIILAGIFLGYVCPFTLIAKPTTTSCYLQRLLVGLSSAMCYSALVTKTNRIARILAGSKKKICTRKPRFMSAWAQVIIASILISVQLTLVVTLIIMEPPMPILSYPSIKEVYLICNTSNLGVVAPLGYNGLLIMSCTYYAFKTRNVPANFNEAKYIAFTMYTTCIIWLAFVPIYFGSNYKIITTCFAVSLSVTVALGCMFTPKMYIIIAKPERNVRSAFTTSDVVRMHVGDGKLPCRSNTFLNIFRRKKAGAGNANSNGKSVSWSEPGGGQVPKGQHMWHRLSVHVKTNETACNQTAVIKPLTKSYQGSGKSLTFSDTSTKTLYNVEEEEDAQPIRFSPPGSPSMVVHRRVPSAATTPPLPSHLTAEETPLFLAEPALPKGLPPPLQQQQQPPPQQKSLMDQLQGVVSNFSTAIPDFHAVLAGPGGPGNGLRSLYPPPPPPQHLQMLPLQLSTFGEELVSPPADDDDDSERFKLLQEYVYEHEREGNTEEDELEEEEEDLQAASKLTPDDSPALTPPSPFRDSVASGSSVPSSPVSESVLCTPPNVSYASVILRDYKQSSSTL
Series [2] addresses T1, Metabotropic glutamate receptor 1. The series is described as follows: Positive allosteric modulation of human mGlu1 receptor assessed as increase in glutamate-induced calcium mobilization. Format: functional. A general note: Calcium flux is commonly read through the fluorescence of an indicator in the cells.
The subject of series [3] is Brain. The series is described as follows: Fraction unbound in rat brain homogenate. Format: ADME, tissue-based.
The nature of series [4]: Intrinsic clearance in human liver microsomes. Format: ADME. The note with it: read-out: CLH. Background: Liver microsomes are vesicles of endoplasmic reticulum, rich in cytochrome P450 enzymes.
Series [5] deals with Plasma. The series is described as follows: Plasma concentration in rat at 0.25 mg/kg, iv measured at the last time point. The format is ADME, organism-based. The note with it: in vivo.
Another series addresses Cytochrome P450 2C9 (Homo sapiens, UniProt P11712). In words: Inhibition of CYP2C9 (unknown origin). Format: ADME.
The target in series [6] is Metabotropic glutamate receptor 1 (Rattus norvegicus, UniProt P23385). In words: Positive allosteric modulation of rat mGlu1 receptor assessed as increase in glutamate-induced calcium mobilization. Format: functional.
Series [7] relates to Plasma. The series is described as follows: Fraction unbound in rat plasma. The format is ADME, cell-free.
The target in series [8] is T1, Metabotropic glutamate receptor 1. In words: Positive allosteric modulation of human mGlu1 receptor assessed as glutamate efficacy at 10 uM (reference value: 95.2 +/- 3.5 %).
Target sequence in this assay (Q13255 19-1194 limits assumed): as above
The nature of series [9]: Fraction unbound in human plasma. The format is ADME, cell-free.
Series [10] relates to Brain. The series is described as follows: Drug uptake in rat brain at 0.25 mg/kg, iv measured at the last time point. Format: ADME, organism-based. The following applies: in vivo.
The target in a further series is Cytochrome P450 2D6 (Homo sapiens, UniProt P10635). The series is described as follows: Inhibition of CYP2D6 (unknown origin). Format: ADME.
The next series deals with Cytochrome P450 3A4 (Homo sapiens, UniProt P08684). The series is described as follows: Inhibition of CYP3A4 (unknown origin). Format: ADME.
Series [11] has as its target Metabotropic glutamate receptor 1 (Rattus norvegicus) (UniProt P23385). The series is described as follows: Positive allosteric modulation of rat mGlu1 receptor assessed as increase in glutamate-induced calcium mobilization relative to glutamate. Format: functional.
Series [12] in a line: Ratio of drug level in brain to plasma in rat at 0.25 mg/kg, iv. The format is ADME, organism-based.
The target in the next series is T2, Cytochrome P450 1A2 (Homo sapiens, UniProt P05177).
T2 sequence (P05177 whole entry): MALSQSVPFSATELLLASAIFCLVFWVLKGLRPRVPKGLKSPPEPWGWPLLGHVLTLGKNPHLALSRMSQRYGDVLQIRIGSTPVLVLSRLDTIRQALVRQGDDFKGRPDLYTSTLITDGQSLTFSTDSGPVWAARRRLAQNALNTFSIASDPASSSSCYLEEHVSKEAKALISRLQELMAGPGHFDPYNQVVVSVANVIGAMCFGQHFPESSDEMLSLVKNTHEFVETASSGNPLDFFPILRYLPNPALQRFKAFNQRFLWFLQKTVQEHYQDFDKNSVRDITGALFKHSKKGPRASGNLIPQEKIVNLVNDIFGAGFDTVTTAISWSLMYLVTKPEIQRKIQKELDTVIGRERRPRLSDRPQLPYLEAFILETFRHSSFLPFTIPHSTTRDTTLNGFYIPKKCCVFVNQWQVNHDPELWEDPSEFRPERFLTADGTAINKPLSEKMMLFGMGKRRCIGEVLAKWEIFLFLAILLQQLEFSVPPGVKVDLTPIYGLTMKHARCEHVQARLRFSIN
In words: Inhibition of CYP1A2 (unknown origin). The format is ADME.

In series [13] the target is T1, Metabotropic glutamate receptor 1. In words: Positive allosteric modulation of human mGlu1 receptor assessed as potentiation of glutamate-induced effect at 10 uM relative to control.
Target sequence in this assay (Q13255 19-1194 limits assumed): as the sequence (Q13255 19-1194 limits assumed) above
For series [14] the target is unchanged. The series is described as follows: Positive allosteric modulation of human mGlu1 receptor expressed in wild type T-Rex 293 cells assessed as increase in glutamate-induced calcium mobilization incubated for 2 mins before glutamate stimulation for 2.2 mins. The format is functional, cell-based.
For series [15] the target is unchanged. The series is described as follows: Positive allosteric modulation of human mGlu1 receptor expressed in wild type T-Rex 293 cells assessed as increase in glutamate-induced calcium mobilization incubated for 2 mins before glutamate stimulation for 2.2 mins relative to glutamate. Format: functional, cell-based.
Target sequence in this assay (Q13255 19-1194 limits assumed): as the sequence (Q13255 19-1194 limits assumed) above

Cytochrome P450 3A4, sequence (P08684 whole entry): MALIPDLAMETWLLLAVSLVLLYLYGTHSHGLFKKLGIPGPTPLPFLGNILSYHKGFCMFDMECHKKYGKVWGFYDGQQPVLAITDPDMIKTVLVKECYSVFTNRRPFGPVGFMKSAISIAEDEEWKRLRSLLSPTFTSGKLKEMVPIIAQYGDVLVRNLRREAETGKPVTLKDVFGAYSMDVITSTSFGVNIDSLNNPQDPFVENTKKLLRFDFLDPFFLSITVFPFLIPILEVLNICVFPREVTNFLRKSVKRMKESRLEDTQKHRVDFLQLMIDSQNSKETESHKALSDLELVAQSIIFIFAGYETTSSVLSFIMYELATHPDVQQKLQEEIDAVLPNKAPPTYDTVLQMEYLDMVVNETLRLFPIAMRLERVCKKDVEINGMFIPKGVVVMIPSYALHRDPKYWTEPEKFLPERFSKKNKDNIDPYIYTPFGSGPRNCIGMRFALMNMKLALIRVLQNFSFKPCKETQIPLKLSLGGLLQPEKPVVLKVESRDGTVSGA
Metabotropic glutamate receptor 1 (Rattus norvegicus), sequence (P23385 19-1199 limits assumed): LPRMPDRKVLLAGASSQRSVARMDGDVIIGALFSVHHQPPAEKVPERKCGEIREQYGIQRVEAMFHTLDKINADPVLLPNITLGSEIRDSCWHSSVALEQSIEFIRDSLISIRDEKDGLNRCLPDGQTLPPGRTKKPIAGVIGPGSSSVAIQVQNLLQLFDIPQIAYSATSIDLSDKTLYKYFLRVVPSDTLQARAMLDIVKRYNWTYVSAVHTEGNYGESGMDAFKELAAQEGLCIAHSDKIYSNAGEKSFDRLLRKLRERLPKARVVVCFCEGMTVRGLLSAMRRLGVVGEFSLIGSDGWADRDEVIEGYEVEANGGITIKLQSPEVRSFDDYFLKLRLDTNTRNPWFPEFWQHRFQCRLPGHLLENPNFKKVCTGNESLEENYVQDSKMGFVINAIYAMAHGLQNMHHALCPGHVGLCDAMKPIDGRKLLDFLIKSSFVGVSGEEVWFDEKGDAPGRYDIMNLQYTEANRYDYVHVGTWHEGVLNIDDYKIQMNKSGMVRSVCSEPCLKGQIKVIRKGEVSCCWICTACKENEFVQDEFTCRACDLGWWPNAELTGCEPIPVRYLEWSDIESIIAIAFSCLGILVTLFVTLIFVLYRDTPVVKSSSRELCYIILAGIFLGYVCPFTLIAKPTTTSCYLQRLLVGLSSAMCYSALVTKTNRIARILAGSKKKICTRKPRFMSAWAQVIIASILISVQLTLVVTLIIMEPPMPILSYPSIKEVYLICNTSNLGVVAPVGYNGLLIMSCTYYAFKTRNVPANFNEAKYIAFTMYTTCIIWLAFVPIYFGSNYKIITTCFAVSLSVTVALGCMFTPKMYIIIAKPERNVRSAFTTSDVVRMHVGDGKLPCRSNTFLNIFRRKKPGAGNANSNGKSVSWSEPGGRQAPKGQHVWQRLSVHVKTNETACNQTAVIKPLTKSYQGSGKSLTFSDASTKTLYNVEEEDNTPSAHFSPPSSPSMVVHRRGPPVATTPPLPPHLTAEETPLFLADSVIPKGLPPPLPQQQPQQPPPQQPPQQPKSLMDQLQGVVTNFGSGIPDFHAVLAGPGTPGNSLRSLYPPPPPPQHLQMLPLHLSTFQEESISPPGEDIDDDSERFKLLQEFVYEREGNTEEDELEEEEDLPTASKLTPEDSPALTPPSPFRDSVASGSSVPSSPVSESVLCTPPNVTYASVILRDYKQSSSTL
Metabotropic glutamate receptor 1 (Rattus norvegicus, UniProt P23385), sequence (P23385 whole entry): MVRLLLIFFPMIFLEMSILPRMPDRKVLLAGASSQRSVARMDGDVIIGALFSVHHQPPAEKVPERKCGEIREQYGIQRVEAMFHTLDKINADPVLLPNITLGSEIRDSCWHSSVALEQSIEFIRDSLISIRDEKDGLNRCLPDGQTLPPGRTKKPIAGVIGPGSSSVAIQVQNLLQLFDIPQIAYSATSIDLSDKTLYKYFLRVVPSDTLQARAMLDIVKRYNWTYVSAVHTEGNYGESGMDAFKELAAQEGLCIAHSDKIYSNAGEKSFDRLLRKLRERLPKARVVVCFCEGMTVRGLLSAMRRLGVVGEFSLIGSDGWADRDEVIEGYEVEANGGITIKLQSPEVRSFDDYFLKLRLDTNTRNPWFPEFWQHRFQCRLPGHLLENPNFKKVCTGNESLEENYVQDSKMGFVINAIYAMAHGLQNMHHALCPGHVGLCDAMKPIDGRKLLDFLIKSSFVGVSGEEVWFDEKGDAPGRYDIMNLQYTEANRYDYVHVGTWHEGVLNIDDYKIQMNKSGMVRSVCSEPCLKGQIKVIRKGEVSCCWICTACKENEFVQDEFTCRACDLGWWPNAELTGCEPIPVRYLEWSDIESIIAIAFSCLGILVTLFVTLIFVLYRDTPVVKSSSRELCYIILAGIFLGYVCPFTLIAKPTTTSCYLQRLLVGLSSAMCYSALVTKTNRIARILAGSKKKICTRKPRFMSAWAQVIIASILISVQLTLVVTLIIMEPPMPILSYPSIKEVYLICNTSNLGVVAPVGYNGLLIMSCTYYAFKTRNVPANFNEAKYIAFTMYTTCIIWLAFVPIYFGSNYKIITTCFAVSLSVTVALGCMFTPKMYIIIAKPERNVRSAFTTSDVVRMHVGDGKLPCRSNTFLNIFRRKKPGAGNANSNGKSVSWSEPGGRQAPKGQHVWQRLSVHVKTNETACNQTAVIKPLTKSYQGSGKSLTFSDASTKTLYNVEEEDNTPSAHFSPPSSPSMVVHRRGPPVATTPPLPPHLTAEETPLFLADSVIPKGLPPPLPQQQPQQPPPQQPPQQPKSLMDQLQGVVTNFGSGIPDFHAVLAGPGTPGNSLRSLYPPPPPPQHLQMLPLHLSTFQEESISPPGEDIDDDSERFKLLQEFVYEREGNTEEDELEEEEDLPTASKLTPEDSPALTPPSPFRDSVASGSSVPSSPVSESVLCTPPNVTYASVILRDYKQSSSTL
Cytochrome P450 2D6, sequence (P10635 whole entry): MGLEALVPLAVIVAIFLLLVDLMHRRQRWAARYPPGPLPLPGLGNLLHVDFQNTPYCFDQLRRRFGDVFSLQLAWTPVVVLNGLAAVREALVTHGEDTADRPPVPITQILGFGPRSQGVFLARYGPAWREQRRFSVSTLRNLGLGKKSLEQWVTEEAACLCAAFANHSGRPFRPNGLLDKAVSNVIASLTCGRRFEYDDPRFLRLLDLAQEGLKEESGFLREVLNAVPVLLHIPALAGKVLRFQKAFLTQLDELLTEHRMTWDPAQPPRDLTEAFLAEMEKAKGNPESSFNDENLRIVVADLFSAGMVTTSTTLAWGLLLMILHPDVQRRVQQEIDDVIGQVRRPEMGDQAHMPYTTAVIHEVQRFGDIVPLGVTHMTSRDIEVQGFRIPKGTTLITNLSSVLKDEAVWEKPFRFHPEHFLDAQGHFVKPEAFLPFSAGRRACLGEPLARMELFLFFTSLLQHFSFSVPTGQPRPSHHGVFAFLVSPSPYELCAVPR

On to `O=C(Nc1ccccn1)C1c2ccccc2Oc2ccccc21`, for which, in [1], the %max is 58%. Besides, the EC50 in [2] (read-out: EC50) is 1700 nM.

As to `CC(C)c1csc(NC(=O)C2c3ccccc3Oc3ccccc32)n1`, the Fu is 0.001 in the series on Brain [3], 0.002 in the series on Plasma [7] and 0.001 in series [9]. The CLint scaled in series [4] stood at 15.5 mL/min/kg. The Cp in the series with Plasma [5] amounted to 77.8 ng/mL. In addition, the IC50 against Cytochrome P450 2C9 is 2100 nM; against Cytochrome P450 2D6 it was 26500 nM; at Cytochrome P450 3A4, over 30000 nM; against Cytochrome P450 1A2, 19000 nM. Also, the EC50 in [6] (read-out: EC50) came out at 2400 nM; in series [2] (read-out: EC50), 900 nM. Further, the Efficacy in series [8] came to 115%. Further, the %max in [1] worked out at 89%; in series [11] it was 111%. Besides, the Drug uptake with Brain [10] stood at 78.7 ng/g. For the same molecule, the Kp in series [12] is listed as 1.01. Besides, the fold change (FC) in series [13] was found to be 4.6.

In the series with Brain [3], `O=C(Nc1nc(C(F)(F)F)co1)C1c2ccccc2Oc2ccccc21` returned a Fu of 0.001. The EC50 in series [14] amounted to 246 nM; in [6] (read-out: EC50), 276 nM. The Cp with Plasma [5] was found to be 276 ng/mL. In series [8], the Efficacy came to 109%. In addition, the %max stood at 96% in series [15] and 109% in [11]. The molecule further had a Drug uptake with Brain [10] of 81 ng/g. Further, the IC50 against Cytochrome P450 2D6 and against Cytochrome P450 3A4 was over 30000 nM in each case. The Kp in series [12] is 0.29. In addition, the fold change (FC) in series [13] amounted to 6.9.

Consider `N#Cc1csc(NC(=O)C2c3ccccc3Oc3ccccc32)n1`, for which the Fu in the series on Brain [3] is recorded as 0.017; with Plasma [7], 0.005; in series [9] it was 0.027. The CLint scaled in [4] came to 9.85 mL/min/kg. Besides, the Cp in the series with Plasma [5] turned out to be 80.2 ng/mL. Also, the IC50 against Cytochrome P450 2C9 was 2900 nM; on Cytochrome P450 2D6, 10300 nM; against Cytochrome P450 3A4, over 30000 nM; on Cytochrome P450 1A2, 2900 nM. Besides, the EC50 was 1800 nM in [6] (read-out: EC50), 710 nM in series [2] (read-out: EC50) and 724 nM in series [2] (read-out: pEC50 (converted)). In addition, in [8], the Efficacy was 115%. In addition, the %max is 110% in series [1] and 124% in series [11]. This molecule came in with a Drug uptake in the series with Brain [10] of 83.6 ng/g. Further, the Kp in [12] was found to be 1.19. The fold change (FC) in [13] turned out to be 5.4.

In the case of `O=C(Nc1nc2ccccc2s1)C1c2ccccc2Oc2ccccc21`, the %max in [1] stood at 96%. For the same molecule, in [2] (read-out: EC50), the EC50 worked out at 4800 nM.

`O=C(Nc1nccs1)C1c2ccccc2Oc2ccccc21`: the values for the EC50 in series [6] (read-out: EC50), in series [6] (read-out: pEC50 (converted)) and in series [2] (read-out: EC50) were 3600 nM, 3720 nM and 1400 nM, respectively. Moreover, the %max is 75% in series [1] and 111% in series [11].

In the case of `Cc1nc(NC(=O)C2c3ccccc3Oc3ccccc32)sc1C`, in series [1], the %max stood at 68%. In series [2], the pEC50 is on record as under 5. In addition, the EC50 in series [2] (read-out: EC50) was over 10000 nM.

As to `O=C(Nc1cncs1)C1c2ccccc2Oc2ccccc21`, the %max in series [1] came out at 54%. Moreover, the negative logarithm of the EC50 (pEC50) in [2] was under 5. The EC50 in [2] (read-out: EC50) is over 10000 nM.

As for `Cc1nsc(NC(=O)C2c3ccccc3Oc3ccccc32)n1`, the %max in series [1] was found to be 101%. The EC50 in [2] (read-out: EC50) is 2700 nM.

The IC50 is the concentration needed to halve the response being measured. Low values mean higher potency, high ones lower potency. By Kp is commonly meant the ratio of the level in a tissue or fluid to that in plasma or blood. In general, pEC50 refers to −log10 of the EC50, conventionally taken in molar units.
